This note sets out measurements from US20160220710A1, “COMPOSITIONS AND METHODS FOR DELIVERING PHARMACEUTICAL AGENTS” (THE REGENTS OF THE UNIVERSITY OF MICHIGAN, priority 2015, published 2016).

“Also recorded” adds a separate entry of the source.

Data set [1] concerns carrageenan-based footpad-edema model. The data set can be described thus: Carrageenan footpad edema model, local injection 48 h post carrageenan. Type of data set: in vivo, mice. To be noted: 30 μl, injected 48 h post carrageenan; for subsequent footpad swelling after local injection: 2 mM. As to the method: (§1) Mice Carrageenan Footpad Edema Model. Carrageenan (C1867, Sigma-Aldrich®, 2% in PBS, 30 μl) was injected into the right footpad while PBS (30 μl) was injected in the left footpad as a negative control. For preliminary testing of CFZ as an anti-inflammatory agent, 8-week orally fed mice (CFZ and control) were used. For testing of CFZ in soluble and microcrystal form, naïve 4-5 week old mice were injected with carrageenan first followed by injection of CFZ-A (2 mM in DMSO, 30 μl), CLDIs (2 mM equivalent in PBS, 30 μl) or CFZ-HCl (2 mM equivalent in PBS, 30 μl) at 48 h post carrageenan injection. For control experiments, CFZ-A, CLDIs and CFZ-HCl were injected into the right footpads of naïve 4-5 week old mice. DMSO was used as a control for CFZ-A in the left footpad whereas PBS was used as a control for CLDIs and CFZ-HCl. Footpads were measured (length—l, width—w, three thicknesses—t1, t2, t3) at various time points using a digital vernier calliper and changes in the swelling based on volume of the foot was calculated as per above.
For orientation: Carrageenan injected into the paw causes an acute inflammation.

Another data set deals with footpad swelling. Nature of the data set: Footpad injections alone in naïve mice. Type of data set: in vivo. The conditions noted are these: 2 mM, 30 μl. The procedure: as §1

With `CC(C)N=c1cc2n(-c3ccc(Cl)cc3)c3ccccc3nc-2cc1Nc1ccc(Cl)cc1.Cl` [CFZ-HCl], in data set [1] (2 mM equivalent), the “footpad swelling inhibition beyond 24 h post therapy” value is listed as “sustained for a further 24 h”. Further, the “subsequent footpad swelling after local injection” value in data set [1] was “inhibited for 24 h post therapy”. In addition, in the data set on footpad swelling, the “inflammation/swelling after injection alone” value is reported as “did not induce any measurable inflammation; also recorded: no signs of swelling”.

As to `CC(C)N=c1cc2n(-c3ccc(Cl)cc3)c3ccccc3nc-2cc1Nc1ccc(Cl)cc1.Cl` [CFZ-A], the “subsequent footpad swelling after local injection” value in data set [1] was “did not lead to a measurable anti-inflammatory response”. In addition, the “inflammation/swelling after injection alone” value in the data set with footpad swelling was “measurable inflammatory response initially; also recorded: some swelling”.
